Data: PubChem BioAssay AID602311 (The Scripps Research Institute Molecular Screening Center, 2012)
Active and inactive are the calls of the source. No rule for the calls is given here.

Key:
Assay in all cases: serine hydrolase off-target inhibition in mouse brain, late-stage follow-up, selectivity assay for DAGLb inhibitor project, biochemical, gel-based competitive ABPP, mouse brain membrane, set 1 (AID 602311)
ABHD12 = conditions: gel-based competitive ABPP fluorescence, at 10 µM, stronger effect = higher value
APEH = conditions: gel-based competitive ABPP fluorescence, at 10 µM, stronger effect = higher value
[1] = target: Acyl-protein thioesterase 1 (Mus musculus) (UniProt P97823); conditions: gel-based competitive ABPP fluorescence, LYPLA1, at 10 µM, stronger effect = higher value
Sequence of Acyl-protein thioesterase 1 (Mus musculus) (P97823 whole entry, looked up): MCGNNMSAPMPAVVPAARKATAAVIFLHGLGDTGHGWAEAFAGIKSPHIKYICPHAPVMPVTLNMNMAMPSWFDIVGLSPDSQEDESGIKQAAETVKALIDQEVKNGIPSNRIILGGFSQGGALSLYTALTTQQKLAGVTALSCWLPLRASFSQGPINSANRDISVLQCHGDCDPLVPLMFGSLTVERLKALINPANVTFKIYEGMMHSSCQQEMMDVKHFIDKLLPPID

FAAH = conditions: gel-based competitive ABPP fluorescence, at 10 µM, stronger effect = higher value
KIAA1363 = conditions: gel-based competitive ABPP fluorescence, at 10 µM, stronger effect = higher value
LYPLA2 = conditions: gel-based competitive ABPP fluorescence, at 10 µM, stronger effect = higher value
MAGL = conditions: gel-based competitive ABPP fluorescence, at 10 µM, stronger effect = higher value
[2] = target: Monoacylglycerol lipase ABHD6 (Mus musculus) (UniProt Q8R2Y0); conditions: gel-based competitive ABPP fluorescence, at 10 µM, stronger effect = higher value
Sequence of Monoacylglycerol lipase ABHD6 (Mus musculus) (Q8R2Y0 whole entry, looked up): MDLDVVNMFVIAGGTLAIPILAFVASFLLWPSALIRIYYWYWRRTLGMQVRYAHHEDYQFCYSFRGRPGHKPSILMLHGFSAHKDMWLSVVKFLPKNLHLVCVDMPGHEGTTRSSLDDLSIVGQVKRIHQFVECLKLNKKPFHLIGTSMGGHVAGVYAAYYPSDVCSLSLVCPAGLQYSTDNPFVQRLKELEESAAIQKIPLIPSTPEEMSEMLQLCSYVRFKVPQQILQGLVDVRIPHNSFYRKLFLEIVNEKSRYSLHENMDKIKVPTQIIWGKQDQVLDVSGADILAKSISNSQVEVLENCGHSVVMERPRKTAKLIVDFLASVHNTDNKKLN

Row | SMILES | inhibition (ABHD12) | inhibition (APEH) | inhibition [1] | inhibition (FAAH) | inhibition (KIAA1363) | inhibition (LYPLA2) | inhibition (MAGL) | inhibition [2] [%]
1 | COc1ccccc1-c1ccc(-c2cn(C(=O)N3CCCCC3Cc3ccccc3)nn2)cc1 (stereo not drawn) | 0% (inactive) | 0% (inactive) | 0% (inactive) | 10% (inactive) | 0% (inactive) | 0% (inactive) | 70% | 85
2 | O=C(N1CCCCC1Cc1ccccc1)n1cc(-c2ccc(-c3ccccc3CO)cc2)nn1 (stereo not drawn) | 10% (inactive) | 0% (inactive) | 20% (inactive) | 55% | 0% (inactive) | 20% (inactive) | 95% | 95
3 | O=C(N1CCCCC1Cc1ccccc1)n1cc(-c2cccc(-c3ccccc3)c2)nn1 (stereo not drawn) | 0% (inactive) | 0% (inactive) | 0% (inactive) | 65% | 0% (inactive) | 0% (inactive) | 80% | 85
4 | O=C(N1CCCCC1Cc1ccccc1)n1cc(-c2ccc(-c3cccc(CO)c3)cc2)nn1 (stereo not drawn) | 0% (inactive) | 0% (inactive) | 0% (inactive) | 40% (inactive) | 0% (inactive) | 0% (inactive) | 10% (inactive) | 90
5 | O=C(N1CCCCC1Cc1ccccc1)n1cc(-c2ccccc2-c2ccccc2)nn1 (stereo not drawn) | 0% (inactive) | 0% (inactive) | 10% (inactive) | 98% | 0% (inactive) | 10% (inactive) | 75% | 80
6 | O=C(N1CCCCC1Cc1ccccc1)n1cc(-c2ccc(-c3ccccc3)cc2)nn1 (stereo not drawn) | 0% (inactive) | 0% (inactive) | 0% (inactive) | 0% (inactive) | 0% (inactive) | 0% (inactive) | 0% (inactive) | 95
7 | O=C(N1CCCCC1Cc1ccccc1)n1cc(-c2ccc(OC(F)(F)F)cc2)nn1 (stereo not drawn) | 0% (inactive) | 0% (inactive) | 0% (inactive) | 65% | 40% (inactive) | 0% (inactive) | 40% (inactive) | 90
8 | O=C(N1CCCCC1Cc1ccccc1)n1cc(-c2ccc(-c3ccc(OC(F)(F)F)cc3)cc2)nn1 (stereo not drawn) | 0% (inactive) | 0% (inactive) | 0% (inactive) | 45% (inactive) | 55% | 0% (inactive) | 0% (inactive) | 90
9 | O=C(N1CCCCC1Cc1ccccc1)n1ncc(C(O)(c2ccccc2)c2ccccc2)n1 (stereo not drawn) | 0% (inactive) | 0% (inactive) | 0% (inactive) | 0% (inactive) | 0% (inactive) | 0% (inactive) | 0% (inactive) | 85
10 | O=C(N1CCCCC1Cc1ccccc1)n1cc(-c2ccc(-c3ccc4c(c3)OCO4)cc2)nn1 (stereo not drawn) | 0% (inactive) | 0% (inactive) | 0% (inactive) | 50% | 0% (inactive) | 0% (inactive) | 0% (inactive) | 90
11 | O=C(N1CCCCC1Cc1ccccc1)n1cc(-c2ccc(-c3ccccc3C(F)(F)F)cc2)nn1 (stereo not drawn) | 0% (inactive) | 0% (inactive) | 0% (inactive) | 40% (inactive) | 0% (inactive) | 0% (inactive) | 1% (inactive) | 80
12 | O=C(N(CCc1ccccc1)Cc1ccco1)n1cc(-c2ccc(OC(F)(F)F)cc2)nn1 | 0% (inactive) | 0% (inactive) | 0% (inactive) | 95% | 55% | 0% (inactive) | 10% (inactive) | 95
13 | O=C(c1ccc(-c2cn(C(=O)N3CCCCC3Cc3ccccc3)nn2)cc1)N1CCCCC1 (stereo not drawn) | 0% (inactive) | 0% (inactive) | 25% (inactive) | 55% | 0% (inactive) | 25% (inactive) | 0% (inactive) | 98
14 | CC(C)CN(CCc1ccccc1)C(=O)n1cc(-c2ccc(OC(F)(F)F)cc2)nn1 | 0% (inactive) | 0% (inactive) | 0% (inactive) | 0% (inactive) | 0% (inactive) | 0% (inactive) | 0% (inactive) | 90
15 | CC(C)(C)OC(=O)NCCCCCN(CCc1ccccc1)C(=O)n1cc(-c2ccc(OC(F)(F)F)cc2)nn1 | 0% (inactive) | 0% (inactive) | 0% (inactive) | 0% (inactive) | 0% (inactive) | 0% (inactive) | 10% (inactive) | 95

Now from value to compound:

Row | inhibition (ABHD12) | inhibition (APEH) | inhibition [1] | inhibition (FAAH) | inhibition (KIAA1363) | inhibition (LYPLA2) | inhibition (MAGL) | inhibition [2] [%] | SMILES
16 | 0% (inactive) | 0% (inactive) | 0% (inactive) | 30% (inactive) | 20% (inactive) | 0% (inactive) | 10% (inactive) | 95 | O=C(N1CCCCC1Cc1ccccc1)n1cc(-c2ccc(-c3ccccc3Cl)cc2)nn1 (stereo not drawn)
17 | 0% (inactive) | 0% (inactive) | 0% (inactive) | 10% (inactive) | 10% (inactive) | 0% (inactive) | 0% (inactive) | 85 | O=C(c1ccc(-c2ccc(-c3cn(C(=O)N4CCCCC4Cc4ccccc4)nn3)cc2)cc1)N1CCCCC1 (stereo not drawn)
18 | 0% (inactive) | 0% (inactive) | 0% (inactive) | 55% | 60% | 0% (inactive) | 10% (inactive) | 90 | O=C(N1CCCCC1Cc1ccccc1)n1cc(-c2ccc(-c3ccc(C(F)(F)F)cc3)cc2)nn1 (stereo not drawn)
19 | 0% (inactive) | 0% (inactive) | 0% (inactive) | 90% | 0% (inactive) | 0% (inactive) | 90% | 90 | O=C(N1CCCCC1Cc1ccccc1)n1cc(-c2ccc(Br)cc2)nn1 (stereo not drawn)
20 | 0% (inactive) | 0% (inactive) | 0% (inactive) | 98% | 90% | 0% (inactive) | 0% (inactive) | 85 | O=C(N1CCCCC1Cc1ccccc1)n1ncc(-c2ccc(OC(F)(F)F)cc2)n1 (stereo not drawn)
21 | 0% (inactive) | 0% (inactive) | 0% (inactive) | 65% | 10% (inactive) | 0% (inactive) | 1% (inactive) | 85 | O=C(N1CCCCC1Cc1ccccc1)n1cc(-c2ccc(-c3cccc(C(F)(F)F)c3)cc2)nn1 (stereo not drawn)
22 | 0% (inactive) | 95% | 100% | 55% | 100% | 100% | 0% (inactive) | 100 | O=C(N1CCCCC1c1ccccc1)n1cc(C(O)(c2ccccc2)c2ccccc2)nn1 (stereo not drawn)
23 | 0% (inactive) | 0% (inactive) | 0% (inactive) | 40% (inactive) | 0% (inactive) | 0% (inactive) | 10% (inactive) | 98 | O=C(N1CCCCC1Cc1ccccc1)n1cc(-c2ccc(-c3ccoc3)cc2)nn1 (stereo not drawn)
24 | 0% (inactive) | 0% (inactive) | 0% (inactive) | 45% (inactive) | 25% (inactive) | 0% (inactive) | 60% | 85 | O=C(N1CCCCC1Cc1ccccc1)n1cc(-c2ccc(-c3ccccc3OC(F)(F)F)cc2)nn1 (stereo not drawn)
25 | 0% (inactive) | 0% (inactive) | 50% | 98% | 85% | 50% | 95% | 90 | O=C(N1CCCCC1Cc1ccccc1)n1cc(-c2cc(F)cc(F)c2)nn1 (stereo not drawn)
26 | 0% (inactive) | 0% (inactive) | 0% (inactive) | 30% (inactive) | 0% (inactive) | 0% (inactive) | 0% (inactive) | 98 | Cc1ccccc1-c1ccc(-c2cn(C(=O)N3CCCCC3Cc3ccccc3)nn2)cc1 (stereo not drawn)
